Experimental data published in PubChem BioAssay AID248 (DTP/NCI, 2004).
Where “and” joins values, the source holds several entries; their conditions need not be identical. Equal entries are not always repeated. Inconclusive results and toxic doses are left out.

Test system: L1210 leukemia ip in BDF1 mice, survival T/C
Test: NCI In Vivo Anticancer Drug Screen. Data for tumor model L1210 Leukemia (intraperitoneal) in B6D2F1 (BDF1) mice
Details: endpoint: mean survival time, higher = longer survival
Procedure, shortened: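 Survival endpoint. Drug-treated group vs vehicle group, expressed as T divided by C. Tumor passaged by transplantation.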

[1] = dose: 50.0 mg/kg/injection, schedule: Q01DX001 (ip), vehicle: saline
[2] = dose: 100.0 mg/kg/injection, schedule: Q01DX001 (ip), vehicle: saline
[3] = dose: 200.0 mg/kg/injection, schedule: Q01DX001 (ip), vehicle: saline
[4] = dose: 400.0 mg/kg/injection, schedule: Q01DX001 (ip), vehicle: saline
[5] = dose: 100.0 mg/kg/injection, schedule: Q01DX001 (ip), vehicle: carboxymethylcellulose (CMC)
[6] = dose: 200.0 mg/kg/injection, schedule: Q01DX001 (ip), vehicle: carboxymethylcellulose (CMC)
[7] = dose: 100.0 mg/kg/injection, schedule: Q04DX003 (ip), vehicle: saline with Tween-80
[8] = dose: 200.0 mg/kg/injection, schedule: Q04DX003 (ip), vehicle: saline with Tween-80
[9] = dose: 400.0 mg/kg/injection, schedule: Q04DX003 (ip), vehicle: saline with Tween-80
[10] = dose: 100.0 mg/kg/injection, schedule: Q01DX009 (ip), vehicle: Klucel (hydroxypropylcellulose) (HPC)
[11] = dose: 200.0 mg/kg/injection, schedule: Q01DX009 (ip), vehicle: Klucel (hydroxypropylcellulose) (HPC)
[12] = dose: 400.0 mg/kg/injection, schedule: Q01DX009 (ip), vehicle: Klucel (hydroxypropylcellulose) (HPC)
[13] = dose: 100.0 mg/kg/injection, schedule: Q04DX003 (ip), vehicle: Klucel (hydroxypropylcellulose) (HPC)
[14] = dose: 200.0 mg/kg/injection, schedule: Q04DX003 (ip), vehicle: Klucel (hydroxypropylcellulose) (HPC)
[15] = dose: 400.0 mg/kg/injection, schedule: Q04DX003 (ip), vehicle: Klucel (hydroxypropylcellulose) (HPC)
[16] = dose: 50.0 mg/kg/injection, schedule: Q01DX009 (ip), vehicle: saline
[17] = dose: 100.0 mg/kg/injection, schedule: Q01DX009 (ip), vehicle: saline
[18] = dose: 200.0 mg/kg/injection, schedule: Q01DX009 (ip), vehicle: saline

OB1OB(OB2OB(O)O2)O1
T/C [1]: 92 % of control
T/C [2]: 92 % of control
T/C [3]: 108 % of control
T/C [4]: 113 % of control

S=C(NP(=S)(NC(=S)OCCN1CC1)NC(=S)OCCN1CC1)OCCN1CC1
T/C [5]: 93 % of control
T/C [6]: 96 % of control

c1ccc(NCc2ccco2)cc1
T/C [7]: 106 % of control
T/C [8]: 98 % of control
T/C [9]: 106 % of control

COc1ccc(C(O)(c2ccc(OC)cc2)c2ccccn2)cc1
T/C [7]: 95 % of control
T/C [8]: 102 % of control
T/C [9]: 91 % of control

Cc1[nH]c(=O)nc2c1CCO2
T/C [2]: 98 % of control
T/C [3]: 104 % of control
T/C [4]: 101 % of control

Cc1cc(Cl)ccc1NC(=O)Nc1cccc(F)c1
T/C [10]: 88 % of control
T/C [11]: 90 % of control
T/C [12]: 86 % of control

COc1c(NC(=O)CC(C)=O)cccc1[N+](=O)[O-]
T/C [10]: 103 % of control
T/C (dose: 100.0 mg/kg/injection, schedule: Q04DX002 (ip), vehicle: Klucel (hydroxypropylcellulose) (HPC)): 92 % of control
T/C [11]: 101 % of control
T/C (dose: 200.0 mg/kg/injection, schedule: Q04DX002 (ip), vehicle: Klucel (hydroxypropylcellulose) (HPC)): 92 % of control
T/C [12]: 98 % of control
T/C (dose: 400.0 mg/kg/injection, schedule: Q04DX002 (ip), vehicle: Klucel (hydroxypropylcellulose) (HPC)): 101 % of control

CC(=O)OC1(N=NC(C)(C)C)C(C)(C)C(=O)C1(C)C
T/C [13]: 91 % of control
T/C [14]: 86 % of control
T/C [15]: 91 % of control

CC(=O)c1ccc[n+](C)c1
T/C [16]: 102 % of control
T/C [17]: 100 % of control
T/C [18]: 91 % of control

BrC[Si](c1ccccc1)(c1ccccc1)c1ccccc1
T/C (dose: 100.0 mg/kg/injection, schedule: Q04DX002 (ip), vehicle: saline with Tween-80): 96 % of control
T/C (dose: 200.0 mg/kg/injection, schedule: Q04DX002 (ip), vehicle: saline with Tween-80): 96 % of control
T/C (dose: 400.0 mg/kg/injection, schedule: Q04DX002 (ip), vehicle: saline with Tween-80): 92 % of control

CN(C)c1ccc2cc3ccc(N(C)C)cc3nc2c1
T/C (dose: 6.25 mg/kg/injection, schedule: Q01DX009 (ip), vehicle: saline with Tween-80): 93 % of control
T/C (dose: 12.5 mg/kg/injection, schedule: Q01DX009 (ip), vehicle: saline with Tween-80): 98 % of control
T/C (dose: 25.0 mg/kg/injection, schedule: Q01DX009 (ip), vehicle: saline with Tween-80): 93 % of control
T/C (dose: 25.0 mg/kg/injection, schedule: Q04DX002 (ip), vehicle: saline with Tween-80): 98 % of control
T/C (dose: 50.0 mg/kg/injection, schedule: Q04DX002 (ip), vehicle: saline with Tween-80): 98 % of control

N#CC(C#N)=C(c1ccccc1)C1CCCCC1
T/C [2]: 92 % of control
T/C [3]: 94 % of control
T/C [4]: 100 % of control

Cc1ccc(NC(=O)C(F)(F)C(F)(F)C(F)(F)F)cc1
T/C [2]: 89 % of control
T/C [3]: 97 % of control
T/C [4]: 105 % of control

CS(=O)(=O)OCCN(CCOS(C)(=O)=O)c1ccc(C=Nc2ccc(-c3csc(-c4ccc(Cl)cc4)n3)cc2)cc1
T/C (dose: 66.0 mg/kg/injection, schedule: Q04DX003 (ip), vehicle: Klucel (hydroxypropylcellulose) (HPC)): 122 % of control
T/C (dose: 150.0 mg/kg/injection, schedule: Q04DX003 (ip), vehicle: Klucel (hydroxypropylcellulose) (HPC)): 153 % of control

Cc1ccc(C)c(NS(=O)(=O)c2ccc(Cl)cc2)c1
T/C [10]: 102 % of control
T/C [13]: 107 % of control
T/C [11]: 98 % of control
T/C [14]: 113 % of control
T/C [12]: 98 % of control
T/C [15]: 113 % of control

Cc1cc(Cl)c(OCC(=O)O)c(Cl)c1
T/C [2]: 92 % of control
T/C [3]: 92 % of control
T/C [4]: 94 % of control

CC1(C)OCC(C2OC(=O)C(O)=C2O)O1 (stereo unspecified)
T/C [16]: 111 % of control
T/C [17]: 92 % of control
T/C [18]: 101 % of control

O=C1C2C(C(=O)N1c1ccccc1)C1c3ccccc3C2C2CCCCN21 (stereo unspecified)
T/C (dose: 25.0 mg/kg/injection, schedule: Q01DX009 (ip), vehicle: Klucel (hydroxypropylcellulose) (HPC)): 102 % of control
T/C (dose: 50.0 mg/kg/injection, schedule: Q01DX009 (ip), vehicle: Klucel (hydroxypropylcellulose) (HPC)): 105 % of control
T/C [10]: 92 % of control
T/C [13]: 92 % of control

CC1(C)CC(N=Cc2ccccc2O)CC(C)(C)N1O.CC1(C)CC(N=Cc2ccccc2O)CC(C)(C)N1O.[Ni]
T/C [7]: 100 % of control

Nn1nnc(-c2ccccc2)c1-c1ccccc1
T/C [5]: 100 % of control
T/C [6]: 100 % of control

CC12CCC3CC1OC(=O)C32 (stereo unspecified)
T/C (dose: 12.5 mg/kg/injection, schedule: Q01DX001 (ip), vehicle: saline): 98 % of control
T/C (dose: 25.0 mg/kg/injection, schedule: Q01DX001 (ip), vehicle: saline): 94 % of control
T/C [1]: 105 % of control

CC1(C)OC2C(COC(=O)Oc3ccccc3)OC(n3cnc4c(=O)[nH]c(N)nc43)C2O1 (stereo unspecified)
T/C (dose: 100.0 mg/kg/injection, schedule: Q01DX005 (ip), vehicle: saline): 106 % of control
T/C (dose: 200.0 mg/kg/injection, schedule: Q01DX005 (ip), vehicle: saline): 97 % of control

CC(C)C1C(=O)N2CCCC2C2(O)OC(C(=O)NCCc3ccccc3)(C(C)C)C(=O)N12 (stereo unspecified)
T/C (dose: 25.0 mg/kg/injection, schedule: Q04DX003 (ip), vehicle: alcohol): 98 % of control
T/C (dose: 50.0 mg/kg/injection, schedule: Q04DX003 (ip), vehicle: alcohol): 105 % of control and 100 % of control
T/C (dose: 100.0 mg/kg/injection, schedule: Q04DX003 (ip), vehicle: alcohol): 100 % of control and 104 % of control
T/C (dose: 200.0 mg/kg/injection, schedule: Q04DX003 (ip), vehicle: alcohol): 100 % of control and 102 % of control
T/C (dose: 400.0 mg/kg/injection, schedule: Q04DX003 (ip), vehicle: alcohol): 93 % of control

CCn1c2ccccc2c2c(C)c3cnccc3c(C)c21
T/C (dose: 37.5 mg/kg/injection, schedule: Q04DX003 (ip), vehicle: saline): 94 % of control
T/C (dose: 62.5 mg/kg/injection, schedule: Q01DX009 (ip), vehicle: saline with Tween-80): 193 % of control
T/C (dose: 75.0 mg/kg/injection, schedule: Q04DX003 (ip), vehicle: saline): 90 % of control
T/C (dose: 125.0 mg/kg/injection, schedule: Q01DX009 (ip), vehicle: saline with Tween-80): 101 % of control
T/C (dose: 150.0 mg/kg/injection, schedule: Q04DX003 (ip), vehicle: saline): 92 % of control
T/C (dose: 250.0 mg/kg/injection, schedule: Q01DX009 (ip), vehicle: saline with Tween-80): 105 % of control
T/C (dose: 300.0 mg/kg/injection, schedule: Q04DX003 (ip), vehicle: saline): 94 % of control

ClC(Cl)(Cl)SN1CCOCC1
T/C [16]: 106 % of control
T/C [17]: 95 % of control
T/C [18]: 104 % of control

O=C(C1C2CCC(CC2)C1C(=O)N1CCCCC1)N1CCCCC1 (stereo unspecified)
T/C (dose: 100.0 mg/kg/injection, schedule: Q04DX003 (ip), vehicle: saline): 108 % of control
T/C (dose: 200.0 mg/kg/injection, schedule: Q04DX003 (ip), vehicle: saline): 100 % of control
T/C (dose: 400.0 mg/kg/injection, schedule: Q04DX003 (ip), vehicle: saline): 100 % of control

COc1cc([N+](=O)[O-])ccc1NC(=O)NCCc1ccc(OC)c(OC)c1
T/C [10]: 93 % of control
T/C [11]: 96 % of control
T/C [12]: 100 % of control

Nc1ccc(Cl)nc1
T/C [1]: 98 % of control
T/C [2]: 98 % of control
T/C [3]: 102 % of control
T/C [4]: 96 % of control

OC1CCCC/C1=C/C=C/c1ccccc1 (stereo unspecified)
T/C [7]: 89 % of control and 97 % of control
T/C [8]: 92 % of control
T/C [9]: 90 % of control and 94 % of control

CCCCC(CC)C1NCCO1 (stereo unspecified)
T/C (dose: 50.0 mg/kg/injection, schedule: Q01DX009 (ip), vehicle: saline with Tween-80): 87 % of control
T/C (dose: 100.0 mg/kg/injection, schedule: Q01DX009 (ip), vehicle: saline with Tween-80): 100 % of control
T/C [7]: 105 % of control
T/C (dose: 200.0 mg/kg/injection, schedule: Q01DX009 (ip), vehicle: saline with Tween-80): 93 % of control
T/C [8]: 86 % of control

O=C(O)c1ccccc1C(=O)Nc1ccccc1[N+](=O)[O-]
T/C (dose: 100.0 mg/kg/injection, schedule: Q01DX001 (ip), vehicle: saline with Tween-80): 91 % of control
T/C (dose: 200.0 mg/kg/injection, schedule: Q01DX001 (ip), vehicle: saline with Tween-80): 91 % of control
T/C (dose: 400.0 mg/kg/injection, schedule: Q01DX001 (ip), vehicle: saline with Tween-80): 91 % of control
